For data set [1] the following is noted: snar bond, DMSO.
The target in data set [2] is CFTR-mediated chloride transport (Homo sapiens, UniProt P13569). It counts as cell-based. The note with it: enteroid cells incubated with test compound 18-24 hours, acute 10 μM forskolin and 300 nM Compound III; for Max. Activity: % of chloride transport with 3 μM Compound A, 3 μM Compound II and 300 nM acute Compound III triple combination control. A digest of the protocol: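 Membrane-potential fluorescence AUC over 15 min quantified CFTR chloride transport after acute forskolin (10 μM), IBMX (100 μM) and Compound III (300 nM) in chloride-free buffer. Human enteroid cells were pretreated with compound for 18–24 h; % Activity is relative to 3 μM Compound A + 3 μM Compound II + 300 nM Compound III.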

Experimental findings from patent US11866450B2, “Modulators of Cystic Fibrosis Transmembrane Conductance regulator, pharmaceutical compositions, methods of treatment, and process for making the modulators” (priority 2018, dated 2024) are described below.

Where two headings read alike, the source gives them in different places.

What is called EC50 is the concentration at which the effect is half-maximal.

Sequence of CFTR-mediated chloride transport (P13569 whole entry, looked up): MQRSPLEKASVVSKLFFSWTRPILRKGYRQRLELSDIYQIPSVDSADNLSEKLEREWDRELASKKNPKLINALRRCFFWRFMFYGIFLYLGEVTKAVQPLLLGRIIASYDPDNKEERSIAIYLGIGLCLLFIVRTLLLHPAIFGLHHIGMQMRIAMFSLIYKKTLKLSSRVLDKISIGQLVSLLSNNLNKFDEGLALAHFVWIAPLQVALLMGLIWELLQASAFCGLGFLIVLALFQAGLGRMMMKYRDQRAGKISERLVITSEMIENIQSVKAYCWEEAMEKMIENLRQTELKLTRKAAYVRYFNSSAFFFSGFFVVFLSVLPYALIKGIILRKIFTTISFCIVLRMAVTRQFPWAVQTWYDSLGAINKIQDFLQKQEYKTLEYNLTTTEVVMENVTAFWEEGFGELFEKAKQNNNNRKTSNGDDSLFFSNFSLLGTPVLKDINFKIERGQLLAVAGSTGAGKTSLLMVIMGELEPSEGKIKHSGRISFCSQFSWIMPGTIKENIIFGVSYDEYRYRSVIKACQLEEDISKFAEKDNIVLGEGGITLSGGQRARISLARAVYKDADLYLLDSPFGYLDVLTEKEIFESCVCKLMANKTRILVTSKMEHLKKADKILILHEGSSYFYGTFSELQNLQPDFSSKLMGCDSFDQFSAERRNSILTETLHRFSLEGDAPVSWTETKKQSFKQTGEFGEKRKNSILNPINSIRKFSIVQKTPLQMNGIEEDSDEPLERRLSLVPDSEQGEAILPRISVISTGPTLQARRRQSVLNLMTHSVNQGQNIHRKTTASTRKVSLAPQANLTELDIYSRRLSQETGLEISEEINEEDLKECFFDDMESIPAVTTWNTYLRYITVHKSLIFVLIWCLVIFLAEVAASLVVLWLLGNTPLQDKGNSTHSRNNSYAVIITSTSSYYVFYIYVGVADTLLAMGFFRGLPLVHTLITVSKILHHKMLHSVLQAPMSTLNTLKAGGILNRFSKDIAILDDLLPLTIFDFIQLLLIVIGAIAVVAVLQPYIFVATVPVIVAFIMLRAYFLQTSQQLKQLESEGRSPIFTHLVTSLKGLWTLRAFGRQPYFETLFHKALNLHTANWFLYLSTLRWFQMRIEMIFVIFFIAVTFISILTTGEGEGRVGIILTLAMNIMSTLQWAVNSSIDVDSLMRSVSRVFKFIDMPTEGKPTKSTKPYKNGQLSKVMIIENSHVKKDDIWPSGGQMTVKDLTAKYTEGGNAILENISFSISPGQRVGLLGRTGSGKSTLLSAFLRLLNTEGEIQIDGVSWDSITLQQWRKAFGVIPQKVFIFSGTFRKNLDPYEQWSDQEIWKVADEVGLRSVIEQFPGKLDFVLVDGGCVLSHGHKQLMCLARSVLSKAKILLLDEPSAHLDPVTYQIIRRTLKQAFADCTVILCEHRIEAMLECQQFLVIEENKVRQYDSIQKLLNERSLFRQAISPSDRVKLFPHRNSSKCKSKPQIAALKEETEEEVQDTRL

In the case of `CC1(C)CC2CCCNc3ccc(cn3)S(=O)(=O)NC(=O)c3ccc(-n4ccc(OCCC5(C(F)(F)F)CC5)n4)nc3N1C2` (racemic) [Compound 62, 12,12-Dimethyl-8-(3-{2-[1-(trifluoromethyl)cyclopropyl]ethoxy}-1H-pyrazol-1-yl)-2λ^6-thia-3,9,11,18,20-pentaazatetracyclo[17.2.2.111,14.05,10]tetracosa-1(22),5,7,9,19(23),20-hexaene-2,2,4-trione], the ring closure, yield after HPLC in data set [1] (from CC1(C)CC(CCCNc2ccc(S(=O)(=O)NC(=O)c3ccc(-n4ccc(OCCC5(C(F)(F)F)CC5)n4)nc3Cl)cn2)CN1, 16-membered ring, K2CO3/CsF/3A MS, 37.3 mM, 165.0 °C, 19.0 h) turned out to be 6%. Further, in data set [2], the EC50 was less than 1000 nM and the “Max. Activity” value was “+++ (+++ is >60%)”.
The molecule `CC1(C)CC2CCCCNc3cccc(n3)S(=O)(=O)NC(=O)c3ccc(-n4cc(OCCC5(C(F)(F)F)CC5)cn4)nc3N1C2` (racemic) [Compound 70, 12,12-Dimethyl-8-(4-{2-[1-(trifluoromethyl)cyclopropyl]ethoxy}-1H-pyrazol-1-yl)-2λ^6-thia-3,9,11,19,24-pentaazatetracyclo[18.3.1.111,14.05,10]pentacosa-1(23),5,7,9,20(24),21-hexaene-2,2,4-trione] gave a ring closure, yield after HPLC in data set [1] (from CC1(C)CC(CCCCNc2cccc(S(=O)(=O)NC(=O)c3ccc(-n4cc(OCCC5(C(F)(F)F)CC5)cn4)nc3Cl)n2)CN1, 16-membered ring, K2CO3/CsF/3A MS, 164.4 mM, 150.0 °C) of 24%. In data set [2], the EC50 was less than 1000 nM and the “Max. Activity” value is “++ (++ is 30-60%)”.
For `CC1(C)CC2CCCn3ccc(n3)S(=O)(=O)NC(=O)c3ccc(-n4ccc(OCCCC5(C(F)(F)F)CC5)n4)nc3N1C2` (racemic) [Compound 155, 20,20-Dimethyl-4-(3-{3-[1-(trifluoromethyl)cyclopropyl]propoxy}-1H-pyrazol-1-yl)-10λ^6-thia-1,3,9,14,22-pentaazatetracyclo[16.2.1.111,14.02,7]docosa-2(7),3,5,11(22),12-pentaene-8,10,10-trione], the ring closure, yield after HPLC in data set [1] (from CC1(C)CC(CCCn2ccc(S(=O)(=O)NC(=O)c3ccc(-n4ccc(OCCCC5(C(F)(F)F)CC5)n4)nc3Cl)n2)CN1, 14-membered ring, K2CO3/CsF/3A MS, 49.7 mM, 140.0 °C, 16.0 h, 2 steps) came to 51%. In data set [2], the EC50 was less than 1000 nM and the “Max. Activity” value was “+++ (+++ is >60%)”.
`CC1(C)CC2CN1c1nc(-n3ccc(OCCC(C4CC4)C4CC4)n3)ccc1C(=O)NS(=O)(=O)c1cccc(n1)NCCO2` (racemic) [Compound 156, 8-[3-(3,3-Dicyclopropylpropoxy)-1H-pyrazol-1-yl]-12,12-dimethyl-15-oxa-2λ^6-thia-3,9,11,18,23-pentaazatetracyclo[17.3.1.111,14.05,10]tetracosa-1(23),5,7,9,19,21-hexaene-2,2,4-trione] came in with a ring closure, yield after HPLC in data set [1] (from CC1(C)CC(OCCNc2cccc(S(=O)(=O)NC(=O)c3ccc(-n4ccc(OCCC(C5CC5)C5CC5)n4)nc3Cl)n2)CN1, 15-membered ring, K2CO3/CsF/3A MS, 121.6 mM, 150.0 °C) of 30%. Moreover, in data set [2], the concentration giving a half-maximal response (EC50) is less than 1000 nM and the “Max. Activity” value is recorded as “+++ (+++ is >60%)”.
In data set [1] (from CC(C)(C)OC(=O)N1CC(OCCn2ccc(S(=O)(=O)NC(=O)c3ccc(-n4ccc(OCCC5(C(F)(F)F)CC5)n4)nc3Cl)n2)CC1(C)C, 14-membered ring, K2CO3/CsF/3A MS, 62.6 mM, 140.0 °C, 2 steps), `CC1(C)CC2CN1c1nc(-n3ccc(OCCC4(C(F)(F)F)CC4)n3)ccc1C(=O)NS(=O)(=O)c1ccn(n1)CCO2` (racemic) [Compound 164, 20,20-Dimethyl-4-(3-{2-[1-(trifluoromethyl)cyclopropyl]ethoxy}-1H-pyrazol-1-yl)-17-oxa-10λ^6-thia-1,3,9,14,22-pentaazatetracyclo[16.2.1.111,14.02,7]docosa-2(7),3,5,11(22),12-pentaene-8,10,10-trione] registered a ring closure, yield after HPLC of 30%. Also, in data set [2], the EC50 was 1000 to 3000 nM and the “Max. Activity” value is “++ (++ is 30-60%)”.
Take `CC1(C)CC2CN1c1nc(-n3ccc(OCCC4C5(CC5)C45CC5)n3)ccc1C(=O)NS(=O)(=O)c1cccc(n1)NCCO2` (racemic) [Compound 188, 8-[3-(2-{Dispiro[2.0.2.1]heptan-7-yl}ethoxy)-1H-pyrazol-1-yl]-12,12-dimethyl-15-oxa-2λ^6-thia-3,9,11,18,23-pentaazatetracyclo[17.3.1.111,14.05,10]tetracosa-1(23),5(10),6,8,19,21-hexaene-2,2,4-trione]: in data set [1] (from CC1(C)CC(OCCNc2cccc(S(=O)(=O)NC(=O)c3ccc(-n4ccc(OCCC5C6(CC6)C56CC6)n4)nc3Cl)n2)CN1, 15-membered ring, K2CO3/CsF/3A MS, 108.4 mM, 140.0 °C, 20.0 h, 2 steps), the ring closure, yield after HPLC amounted to 97%. Further, in data set [2], the EC50 was less than 1000 nM and the “Max. Activity” value is on record as “+++ (+++ is >60%)”.
For the molecule `CC(C)(C)COc1ccn(-c2ccc3c(n2)N2CC(CCNc4cccc(n4)S(=O)(=O)NC3=O)CC2(C)C)n1` (stereo not drawn) [Compound 1, 11-[3-(2,2-dimethylpropoxy)-1H-pyrazol-1-yl]-7,7-dimethyl-17λ^6-thia-2,8,10,16,22-pentaazatetracyclo[16.3.1.15,8.09,14]tricosa-1(21),9(14),10,12,18(22),19-hexaene-15,17,17-trione], the ring closure, yield after HPLC in data set [1] (from CC(C)(C)COc1ccn(-c2ccc(C(=O)NS(=O)(=O)c3cccc(NCCC4CNC(C)(C)C4)n3)c(Cl)n2)n1, 14-membered ring, K2CO3, 155.0 °C, 62.0 h, 2 steps) came out at 10%. Besides, in data set [2], the EC50 was less than 1000 nM and the “Max. Activity” value is on record as “+++ (+++ is >60%)”.
For the molecule `CC1(C)CC2CCNc3cccc(n3)S(=O)(=O)NC(=O)c3ccc(-n4ccc(OCC5(C(F)(F)F)CC5)n4)nc3N1C2` (stereo not drawn) [Compound 4, 7,7-dimethyl-11-(3-{[1-(trifluoromethyl)cyclopropyl]methoxy}-1H-pyrazol-1-yl)-17λ^6-thia-2,8,10,16,22-pentaazatetracyclo[16.3.1.1(5,8).0(9,14)]tricosa-1(21),9(14),10,12,18(22),19-hexaene-15,17,17-trione], the ring closure, yield after HPLC in data set [1] (from CC1(C)CC(CCNc2cccc(S(=O)(=O)NC(=O)c3ccc(-n4ccc(OCC5(C(F)(F)F)CC5)n4)nc3Cl)n2)CN1, 14-membered ring, K2CO3, 210.5 mM, 125.0 °C, 112.0 h, 2 steps) is 9%. Further, in data set [2], the concentration giving a half-maximal response (EC50) is less than 1000 nM and the “Max. Activity” value is given as “+++ (+++ is >60%)”.
In data set [1] (from Cc1c(S(=O)(=O)NC(=O)c2ccc(-n3ccc(OCCC4(C(F)(F)F)CC4)n3)nc2Cl)cnn1CCCC1CNC(C)(C)C1, 14-membered ring, K2CO3/CsF/3A MS, 31.9 mM, 150.0 °C), `Cc1c2cnn1CCCC1CN(c3nc(-n4ccc(OCCC5(C(F)(F)F)CC5)n4)ccc3C(=O)NS2(=O)=O)C(C)(C)C1` (stereo not drawn) [Compound 18, 20,20,22-trimethyl-4-(3-{2-[1-(trifluoromethyl)cyclopropyl]ethoxy}-1H-pyrazol-1-yl)-10λ^6-thia-1,3,9,13,14-pentaazatetracyclo[16.2.1.111,14.02,7]docosa-2,4,6,11(22),12-pentaene-8,10,10-trione] displayed a ring closure, yield after HPLC of 7%. Further, in data set [2], the EC50 was less than 1000 nM and the “Max. Activity” value is “++ (++ is 30-60%)”.
Turning to `Cc1nn2cc1S(=O)(=O)NC(=O)c1ccc(-n3ccc(OCCC4(C(F)(F)F)CC4)n3)nc1N1CC(CCC2)CC1(C)C` (stereo not drawn) [Compound 19, 12,20,20-trimethyl-4-(3-{2-[1-(trifluoromethyl)cyclopropyl]ethoxy}-1H-pyrazol-1-yl)-10λ^6-thia-1,3,9,13,14-pentaazatetracyclo[16.2.1.111,14.02,7]docosa-2,4,6,11(22),12-pentaene-8,10,10-trione], the ring closure, yield after HPLC in data set [1] (from Cc1nn(CCCC2CNC(C)(C)C2)cc1S(=O)(=O)NC(=O)c1ccc(-n2ccc(OCCC3(C(F)(F)F)CC3)n2)nc1Cl, 14-membered ring, K2CO3/CsF/3A MS, 31.9 mM, 150.0 °C) stood at 9%. In data set [2], the EC50 is 1000 to 3000 nM and the “Max. Activity” value was “++ (++ is 30-60%)”.
In data set [1] (from CC(C)(C)OC(=O)N1CC(CCCNc2ccnc(S(=O)(=O)NC(=O)c3ccc(-n4ccc(OCCC5(C(F)(F)F)CC5)n4)nc3Cl)c2)CC1(C)C, 15-membered ring, K2CO3/CsF, 13.0 mM, 150.0 °C, 2 steps), `CC1(C)CC2CCCNc3ccnc(c3)S(=O)(=O)NC(=O)c3ccc(-n4ccc(OCCC5(C(F)(F)F)CC5)n4)nc3N1C2` (stereo not drawn) [Compound 23, 12,12-dimethyl-8-(3-{2-[1-(trifluoromethyl)cyclopropyl]ethoxy}-1H-pyrazol-1-yl)-2λ^6-thia-3,9,11,18,22-pentaazatetracyclo[17.3.1.111,14.05,10]tetracosa-1(23),5(10),6,8,19,21-hexaene-2,2,4-trione] displayed a ring closure, yield after HPLC of 9%. Besides, in data set [2], the EC50 is more than 3000 nM and the “Max. Activity” value is “+ (+ is <30%)”.
Regarding `CC1(C)CC2CN1c1nc(-n3ccc(OCCC4(C(F)(F)F)CC4)n3)ccc1C(=O)NS(=O)(=O)c1cccc(n1)N2` (stereo not drawn) [Compound 31, 5,5-dimethyl-9-(3-{2-[1-(trifluoromethyl)cyclopropyl]ethoxy}-1H-pyrazol-1-yl)-15λ^6-thia-2,6,8,14,20-pentaazatetracyclo[14.3.1.13,6.07,12]henicosa-1(20),7,9,11,16,18-hexaene-13,15,15-trione], the ring closure, yield after HPLC in data set [1] (from 2-chloro-N-[[6-[(5,5-dimethylpyrrolidin-3-yl)amino]-2-pyridyl]sulfonyl]-6-[3-[2-[1-(trifluoromethyl)cyclopropyl]ethoxy]pyrazol-1-yl]pyridine-3-carboxamide (dihydrochloride salt), 12-membered ring, K2CO3/CsF/4A MS, 10.5 mM, 150.0 °C) came to 37%. For the same molecule, in data set [2], the half-maximal effective concentration (EC50) is more than 3000 nM and the “Max. Activity” value is reported as “+ (+ is <30%)”.
